Measured values as given in ChEMBL document CHEMBL3886458 (2016).

Assays:
[1] = molecular target: T1, Poly [ADP-ribose] polymerase tankyrase-1 (Homo sapiens, UniProt O95271); assay: Biochemical Assay: The autoparsylation activity of the TNKS 1/2 or PARP1/2 enzymes was measured by the liquid chromatography-mass spectrometry (LC/MS) detection of nicotinamide as readout. Compound activity in inhibiting the TNKS and PARP autoparsylation was evaluated by IC50 measurements. In the compound screening assays, the reaction is composed of 5 uL of compound in […]-point serial …
T1 sequence (O95271 whole entry): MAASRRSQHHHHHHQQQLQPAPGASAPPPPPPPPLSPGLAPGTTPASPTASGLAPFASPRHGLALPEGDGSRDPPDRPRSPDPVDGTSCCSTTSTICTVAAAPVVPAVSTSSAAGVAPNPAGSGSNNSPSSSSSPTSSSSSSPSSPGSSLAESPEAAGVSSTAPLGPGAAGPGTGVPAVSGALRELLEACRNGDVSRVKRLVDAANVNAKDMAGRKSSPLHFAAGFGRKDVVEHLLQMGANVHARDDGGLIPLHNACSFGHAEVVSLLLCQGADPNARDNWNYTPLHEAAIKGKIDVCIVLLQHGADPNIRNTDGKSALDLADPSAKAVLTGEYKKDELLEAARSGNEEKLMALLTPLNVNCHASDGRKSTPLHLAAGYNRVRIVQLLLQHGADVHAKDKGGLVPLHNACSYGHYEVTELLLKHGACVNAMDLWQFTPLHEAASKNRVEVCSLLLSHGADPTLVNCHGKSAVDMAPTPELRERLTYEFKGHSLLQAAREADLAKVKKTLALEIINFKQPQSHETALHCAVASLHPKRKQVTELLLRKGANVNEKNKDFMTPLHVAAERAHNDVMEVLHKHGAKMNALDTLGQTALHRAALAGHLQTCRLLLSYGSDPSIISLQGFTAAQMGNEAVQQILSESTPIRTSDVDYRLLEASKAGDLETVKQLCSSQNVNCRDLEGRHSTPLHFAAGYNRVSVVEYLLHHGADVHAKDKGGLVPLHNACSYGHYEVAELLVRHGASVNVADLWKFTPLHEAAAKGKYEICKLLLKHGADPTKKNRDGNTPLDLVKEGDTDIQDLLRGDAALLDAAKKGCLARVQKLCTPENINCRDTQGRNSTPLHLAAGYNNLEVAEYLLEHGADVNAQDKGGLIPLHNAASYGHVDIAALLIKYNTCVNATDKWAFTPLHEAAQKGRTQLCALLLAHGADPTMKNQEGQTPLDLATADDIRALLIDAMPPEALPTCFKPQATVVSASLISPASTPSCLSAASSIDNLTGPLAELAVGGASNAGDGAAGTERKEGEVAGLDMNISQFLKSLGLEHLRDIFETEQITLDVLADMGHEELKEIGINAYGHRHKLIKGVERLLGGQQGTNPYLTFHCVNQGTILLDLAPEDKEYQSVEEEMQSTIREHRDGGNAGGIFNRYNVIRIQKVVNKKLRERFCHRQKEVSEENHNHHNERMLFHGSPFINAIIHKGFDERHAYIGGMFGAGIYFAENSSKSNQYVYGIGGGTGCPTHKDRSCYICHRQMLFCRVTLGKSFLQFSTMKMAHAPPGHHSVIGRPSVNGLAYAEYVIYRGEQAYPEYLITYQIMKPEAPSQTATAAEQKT

[2] = molecular target: T2, Poly [ADP-ribose] polymerase tankyrase-2 (Homo sapiens, UniProt Q9H2K2); assay: as above
T2 sequence (Q9H2K2 whole entry): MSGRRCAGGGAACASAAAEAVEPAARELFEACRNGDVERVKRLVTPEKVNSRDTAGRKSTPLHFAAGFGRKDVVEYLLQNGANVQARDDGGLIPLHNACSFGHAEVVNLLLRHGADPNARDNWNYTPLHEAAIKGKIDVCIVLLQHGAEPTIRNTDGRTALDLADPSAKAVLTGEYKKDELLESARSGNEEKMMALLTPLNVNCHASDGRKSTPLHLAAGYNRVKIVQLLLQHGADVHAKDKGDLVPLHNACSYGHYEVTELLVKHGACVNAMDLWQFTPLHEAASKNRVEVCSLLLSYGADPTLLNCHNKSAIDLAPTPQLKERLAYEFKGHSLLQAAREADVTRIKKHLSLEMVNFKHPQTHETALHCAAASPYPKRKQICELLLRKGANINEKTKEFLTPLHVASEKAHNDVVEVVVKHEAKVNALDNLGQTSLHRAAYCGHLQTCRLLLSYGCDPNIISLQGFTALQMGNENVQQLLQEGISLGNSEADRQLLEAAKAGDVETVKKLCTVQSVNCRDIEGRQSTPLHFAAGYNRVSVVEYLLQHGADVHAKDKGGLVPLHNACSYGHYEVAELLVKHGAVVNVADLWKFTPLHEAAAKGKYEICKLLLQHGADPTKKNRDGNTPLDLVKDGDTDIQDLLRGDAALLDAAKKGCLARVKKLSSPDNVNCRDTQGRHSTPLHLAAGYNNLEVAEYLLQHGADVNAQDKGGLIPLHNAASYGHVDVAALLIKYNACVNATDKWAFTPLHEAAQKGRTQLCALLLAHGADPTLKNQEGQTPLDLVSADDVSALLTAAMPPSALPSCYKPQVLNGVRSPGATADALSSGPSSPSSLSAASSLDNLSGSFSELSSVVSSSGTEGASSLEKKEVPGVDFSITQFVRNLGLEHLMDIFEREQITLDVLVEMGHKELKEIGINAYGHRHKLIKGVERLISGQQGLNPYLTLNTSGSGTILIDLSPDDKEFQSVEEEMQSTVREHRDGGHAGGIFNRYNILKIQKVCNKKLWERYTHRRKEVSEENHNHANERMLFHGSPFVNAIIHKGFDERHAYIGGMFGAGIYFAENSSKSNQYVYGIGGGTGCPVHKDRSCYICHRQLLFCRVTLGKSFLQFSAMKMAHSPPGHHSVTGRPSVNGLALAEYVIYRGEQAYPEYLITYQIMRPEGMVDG

IC50 [1] | IC50 [2] | Compound
5.12 µM | 0.91 µM | O=c1[nH]c(CN(Cc2cccs2)S(=O)(=O)CCc2ccccc2)nc2c1COCC2
1.16 µM | 0.177 µM | O=c1[nH]c(CN(Cc2cccs2)S(=O)(=O)Cc2ccccc2)nc2c1COCC2
6.4 µM | 1.58 µM | O=C(CCc1c[nH]c2ccccc12)N(Cc1nc2c(c(=O)[nH]1)COCC2)Cc1cccs1
